Experimental data: US6642216B2, “Isoprenoid pathway inhibitors for stimulating bone growth” (ZymoGenetics Corporation, priority 1996, dated 2003)

How the values were obtained:
[1] = tested on: BMP-2 promoter; test: ABA assay: BMP-2 promoter-luciferase reporter in 2T3-BMP-2-LUC osteoblast cells; assay type: cell-based, mouse
Procedure: These transformed cells are then evaluated for the production of the reporter gene product; compounds that activate the BMP promoter will drive production of the reporter protein, which can be readily assayed.
The cells were cultured using α-MEM, 10% FCS with 1% penicillin/streptomycin and 1% glutamine (“plating medium”), and were split 1:5 once per week. For the assay, the cells were resuspended in a plating medium containing 4% FCS, plated in microtiter plates at a concentration of 5×10^3 cells (in 50 μl)/well, and incubated for 24 hours at 37° C. in 5% CO2. To initiate the assay, 50 μl of the test compound or the control in DMSO was added at 2× concentration to each well, so that the final volume was 100 μl. The final serum concentration was 2% FCS, and the final DMSO concentration was 1%.
The treated cells were incubated for 24 hours at 37° C. and 5% CO2. The medium was then removed, and the cells were rinsed three times with PBS. After removal of excess PBS, 25 μl of 1× cell culture lysing reagent (Promega #E153A) was added to each well and incubated for at least ten minutes. Optionally, the plates/samples could be frozen at this point. To each well was added 50 μl of luciferase substrate (Promega #E152A; 10 ml Promega luciferase assay buffer per 7 mg Promega luciferase assay substrate). Luminescence was measured on an automated 96-well luminometer, and was expressed as either picograms of luciferase activity per well or as picograms of luciferase activity per microgram of protein.
Alternatively, the reactivity of a compound to be tested can be compared directly to a negative control containing no compound.

[2] = tested on: neonatal mouse calvaria; test: Neonatal mouse calvaria assay (in vitro bone formation); assay type: cell-based
Procedure: Briefly, four days after birth, the front and parietal bones of ICR Swiss white mouse pups are removed by microdissection and split along the sagittal suture.
Three μm sections of the calvaria are prepared. Representative sections are selected for histomorphometric assessment of bone formation or bone resorption. Bone changes are measured on sections cut 200 μm apart. Osteoblasts and osteoclasts are identified by their distinctive morphology.
Selected compounds and appropriate controls were assayed in vitro (ex vivo) for bone formation activity (described above in “Neonatal Mouse Calvaria Assay (in vitro)”). Histomorphometrical assessments of ex vivo calvaria were carried out using an OsteoMetrics bone morphometry measurement program, according to the manufacturer's instructions. Measurements were determined using either a 10- or 20-fold objective with a standard point counting eyepiece graticule.
New bone formation was determined (using a 10× objective) by measuring the new bone area formed in one field in 3 representative sections of each bone (4 bones per group). Each measurement was carried out ½ field distance from the end of the suture. Both total bone and old bone area were measured. Data were expressed as new bone area in mm^2.
Osteoblast numbers were determined by point counting. The number of osteoblast cells lining the bone surface on both sides of the bone were counted in one field using a 20× objective. Data were expressed as osteoblast numbers/mm of bone surface.
The results were calculated as new bone area in mm^2×10^−3, as above.

[3] = Experiment 3, 8.88178E μg/ml (0.002193 μM lovastatin, 0.002087 μM fluvastatin)
[4] = under these conditions (0.1-1000 μM)

## CC(C)n1c(/C=C/C(O)CC(O)CC(=O)O)c(-c2ccc(F)cc2)c2ccccc21 (centres unmarked) [Fluvastatin, fluvastatin]
[1]; Experiment 1, 0.195312 μg/ml
  % 59-0008 Response: 36.820%
  Fold increase over negative control: 2.630 fold
[1]; Experiment 1, 0.390625 μg/ml
  % 59-0008 Response: 28.080%
  Fold increase over negative control: 2.243 fold
[1]; Experiment 1, 0.78125 μg/ml
  % 59-0008 Response: 75.160%
  Fold increase over negative control: 4.328 fold
[1]; Experiment 1, 1.5625 μg/ml
  % 59-0008 Response: 117.980%
  Fold increase over negative control: 6.223 fold
[1]; Experiment 1, 3.125 μg/ml
  % 59-0008 Response: 173.280%
  Fold increase over negative control: 8.672 fold
[1]; Experiment 1, 6.25 μg/ml
  % 59-0008 Response: 165.630%
  Fold increase over negative control: 8.333 fold
[1]; Experiment 1, 12.5 μg/ml
  % 59-0008 Response: 164.450%
  Fold increase over negative control: 8.281 fold
[1]; Experiment 1, 25 μg/ml
  % 59-0008 Response: 137.500%
  Fold increase over negative control: 7.088 fold
[1]; Experiment 1, 50 μg/ml
  % 59-0008 Response: −22.660%
  Fold increase over negative control: −0.003 fold
[1]; Experiment 1, 200 μg/ml
  % 59-0008 Response: −22.700%
  Fold increase over negative control: −0.005 fold
[1]; Experiment 3, 0.002842 μg/ml
  % 59-0008 Response: −3.26%
  Fold increase over negative control: 0.83 fold
[1]; Experiment 3, 0.009094 μg/ml
  % 59-0008 Response: −3.84%
  Fold increase over negative control: 0.8 fold
[1]; Experiment 3, 0.029103 μg/ml
  % 59-0008 Response: −5.18%
  Fold increase over negative control: 0.73 fold
[1]; Experiment 3, 0.093132 μg/ml
  % 59-0008 Response: −2.11%
  Fold increase over negative control: 0.89 fold
[1]; Experiment 3, 0.298023 μg/ml
  % 59-0008 Response: −3.26%
  Fold increase over negative control: 0.83 fold
[1]; Experiment 3, 0.953674 μg/ml
  % 59-0008 Response: 2.3%
  Fold increase over negative control: 1.12 fold
[1]; Experiment 3, 3.051757 μg/ml
  % 59-0008 Response: 22.66%
  Fold increase over negative control: 2.18 fold
[1]; Experiment 3, 9.765625 μg/ml
  % 59-0008 Response: 103.7%
  Fold increase over negative control: 6.4 fold
[1]; Experiment 3, 31.25 μg/ml
  % 59-0008 Response: 122.53%
  Fold increase over negative control: 7.38 fold
[1]; [3]
  % 59-0008 Response: −0.19%
  Fold increase over negative control: 0.99 fold

## CC(O)(CCO)CC(=O)O (centres unmarked) [mevalonate]
[1]
  effect of mevalonic acid on primary screen activity of 59-0008: no effect
[1]; mevalonate 25-800 μM, mevastatin 100, 25, or 6.25 μM
  effect of added mevalonate on the activity of mevastatin in the ABA assay: inhibits the activity of mevastatin

## NCCC(O)(P(=O)(O)O)P(=O)(O)O [Pamidronate, pamidronate]
[2]; other bisphosphonates, 10 μM
  New Bone Area: 6.0 ± 0.5 mm^2 × 10^−3
[2]; other bisphosphonates, 100 μM
  New Bone Area: 5.8 ± 0.6 mm^2 × 10^−3
[2]; other bisphosphonates, 1000 μM
  New Bone Area: 5.2 ± 0.6 mm^2 × 10^−3
[2]; [4]
  effect on new bone area: negligible effects

## c1ccc(N=NC2=NNc3ccccc3S2)cc1 [59-0008, 3-phenylazo-1H-4,1,2-benzothiadiazine]
[1]
  concentration at which reactivity is maximal: 3 to 10 µM

## CCCCCN(C)CCC(O)(P(=O)(O)O)P(=O)(O)O [Ibandronate, ibandronate]
[2]; 10 μM
  effect on bone formation (dose response curves): significant increase of bone formation
[2]; Experiment 1, 10 μM
  New Bone Area: 8.3 ± 0.7 mm^2 × 10^−3
[2]; Experiment 1, 100 μM
  New Bone Area: Toxic
[2]; Experiment 1, 1000 μM
  New Bone Area: Toxic
[2]; Experiment 2, 0.01 μM
  New Bone Area: 3.5 ± 0.43 mm^2 × 10^−3
[2]; Experiment 2, 0.1 μM
  New Bone Area: 3.2 ± 0.56 mm^2 × 10^−3
[2]; Experiment 2, 1 μM
  New Bone Area: 4.9 ± 1.2 mm^2 × 10^−3
[2]; Experiment 2, 10 μM
  New Bone Area: 7.2 ± 0.7 mm^2 × 10^−3
[2]; Experiment 2, 100 μM
  New Bone Area: Toxic
[2]; Experiment 2, 1000 μM
  New Bone Area: Toxic
[2]; Experiment 3, 0.1 μM
  New Bone Area: 6.2 ± 0.6 mm^2 × 10^−3
[2]; Experiment 3, 1 μM
  New Bone Area: 7.5 ± 0.7 mm^2 × 10^−3
[2]; Experiment 3, 10 μM
  New Bone Area: 9.5 ± 2.4 mm^2 × 10^−3
[2]; Experiment 3, 100 μM
  New Bone Area: Toxic
[2]; combination study, IBN (1 μM), ibandronate 1 μM alone
  New Bone Area: 3.95 ± 0.28 mm^2 × 10^−3
[2]; combination study, IBN (10 μM), ibandronate 10 μM alone
  New Bone Area: 6.03 ± 1.56 mm^2 × 10^−3

## NCCCC(O)(P(=O)(O)O)P(=O)(O)O [Alendronate, alendronate]
[2]; other bisphosphonates, 0.1 μM
  New Bone Area: 3.5 ± 0.3 mm^2 × 10^−3
[2]; other bisphosphonates, 1 μM
  New Bone Area: 5.2 ± 0.5 mm^2 × 10^−3
[2]; other bisphosphonates, 10 μM
  New Bone Area: 3.3 ± 0.6 mm^2 × 10^−3
[2]; other bisphosphonates, 100 μM
  New Bone Area: Toxic
[2]; [4]
  effect on new bone area: negligible effects

## O=P(O)(O)C(Cl)(Cl)P(=O)(O)O [Clodronate, clodronate]
[2]; other bisphosphonates, 10 μM
  New Bone Area: 4.8 ± 1.3 mm^2 × 10^−3
[2]; other bisphosphonates, 100 μM
  New Bone Area: 4.6 ± 0.6 mm^2 × 10^−3
[2]; other bisphosphonates, 1000 μM
  New Bone Area: 3.5 ± 0.5 mm^2 × 10^−3
[2]; [4]
  effect on new bone area: negligible effects

## O=P(O)(O)C(O)(Cc1cccnc1)P(=O)(O)O [Risedronate, risedronate]
[2]; 10 μM and 100 μM
  effect on new bone area: significant increases in new bone area
[2]; other bisphosphonates, 10 μM
  New Bone Area: 8.5 ± 0.5 mm^2 × 10^−3
[2]; other bisphosphonates, 100 μM
  New Bone Area: 7.3 ± 1.9 mm^2 × 10^−3
[2]; other bisphosphonates, 1000 μM
  New Bone Area: Toxic

## CC[C@H](C)C(=O)O[C@H]1C[C@H](O)C=C2C=C[C@H](C)[C@H](CC[C@@H](O)C[C@@H](O)CC(=O)O)[C@H]21 [Pravastatin, pravastatin]
[1]; Experiment 1, 0.195312 μg/ml
  % 59-0008 Response: −4.390%
  Fold increase over negative control: 0.807 fold
[1]; Experiment 1, 0.390625 μg/ml
  % 59-0008 Response: −1.290%
  Fold increase over negative control: 0.943 fold
[1]; Experiment 1, 0.78125 μg/ml
  % 59-0008 Response: −1.980%
  Fold increase over negative control: 0.913 fold
[1]; Experiment 1, 1.5625 μg/ml
  % 59-0008 Response: −1.120%
  Fold increase over negative control: 0.951 fold
[1]; Experiment 1, 3.125 μg/ml
  % 59-0008 Response: 0.380%
  Fold increase over negative control: 1.017 fold
[1]; Experiment 1, 6.25 μg/ml
  % 59-0008 Response: 0.920%
  Fold increase over negative control: 1.040 fold
[1]; Experiment 1, 12.5 μg/ml
  % 59-0008 Response: 1.110%
  Fold increase over negative control: 1.049 fold
[1]; Experiment 1, 25 μg/ml
  % 59-0008 Response: 3.520%
  Fold increase over negative control: 1.155 fold
[1]; Experiment 1, 50 μg/ml
  % 59-0008 Response: 5.000%
  Fold increase over negative control: 1.220 fold
[1]; Experiment 1, 100 μg/ml
  % 59-0008 Response: 7.620%
  Fold increase over negative control: 1.335 fold
[1]; Experiment 1, 200 μg/ml
  % 59-0008 Response: 11.670%
  Fold increase over negative control: 1.513 fold
